From paper PMC3062105 (Clinical infectious diseases : an official publication of …, 2011)
Several values for one entry are separate records, joined by “and”; a condition that tells them apart may be missing. Equal values may be shown once.

Test system: influenza viruses
Parameters: species or system human (pediatric influenza patients)
Conditions: human, in vivo

| SMILES | Virus isolation rate from specimens |
| --- | --- |
| CCOC(=O)C1=C[C@@H](OC(CC)CC)[C@H](NC(C)=O)[C@@H](N)C1 [oseltamivir] | 68% and 69% |
| CC(=O)N[C@H]1[C@H]([C@H](O)[C@H](O)CO)OC(C(=O)O)=C[C@@H]1N=C(N)N [zanamivir] | 50% and 39% |
